Laboratory results: patent US9975885B2, “Broad-spectrum non-covalent coronavirus protease inhibitors” (priority 2016, dated 2018)
Marks after values point to notes of the source that are not given here.

Legend:
FIPV-3CL^pro = FIPV-3CL^pro (Feline coronavirus (strain FIPV WSU-79/1146) (FCoV), UniProt Q98VG9); assay: biochemical
HKU5-3CL^pro = HKU5-3CL^pro (Bat coronavirus HKU5 (BtCoV) (BtCoV/HKU5/2004), UniProt P0C6W4); assay type: biochemical
PEDV-3CL^pro = PEDV-3CL^pro (Porcine epidemic diarrhea virus (strain CV777) (PEDV), UniProt P0C6Y4); assay: biochemical
Chain of PEDV-3CL^pro (P0C6Y4 2998-3299 limits assumed): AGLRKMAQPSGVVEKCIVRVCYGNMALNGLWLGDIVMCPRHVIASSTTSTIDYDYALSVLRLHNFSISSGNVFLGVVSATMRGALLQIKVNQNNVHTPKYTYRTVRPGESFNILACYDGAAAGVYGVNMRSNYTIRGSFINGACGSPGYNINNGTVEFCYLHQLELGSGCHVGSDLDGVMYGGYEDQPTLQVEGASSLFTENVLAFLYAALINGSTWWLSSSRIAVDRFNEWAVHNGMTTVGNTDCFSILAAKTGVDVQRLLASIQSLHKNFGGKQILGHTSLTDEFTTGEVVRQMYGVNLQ

OC43-3CL^pro = OC43-3CL^pro (Human coronavirus OC43 (HCoV-OC43), UniProt P0C6X6); assay type: biochemical
Chain of OC43-3CL^pro (P0C6X6 3247-3549 limits assumed): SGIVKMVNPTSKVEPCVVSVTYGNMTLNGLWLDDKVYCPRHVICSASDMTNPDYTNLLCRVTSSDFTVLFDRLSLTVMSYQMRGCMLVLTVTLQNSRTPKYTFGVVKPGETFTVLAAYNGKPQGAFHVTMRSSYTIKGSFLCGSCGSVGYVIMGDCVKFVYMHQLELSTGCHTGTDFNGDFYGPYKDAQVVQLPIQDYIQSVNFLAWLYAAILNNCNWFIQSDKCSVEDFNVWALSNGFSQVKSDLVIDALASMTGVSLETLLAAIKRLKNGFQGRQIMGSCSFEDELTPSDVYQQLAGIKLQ

HKU4-3CL^pro = HKU4-3CL^pro (Bat coronavirus HKU4 (BtCoV) (BtCoV/HKU4/2004), UniProt P0C6W3); assay type: biochemical
Chain of HKU4-3CL^pro (P0C6W3 3292-3597 limits assumed): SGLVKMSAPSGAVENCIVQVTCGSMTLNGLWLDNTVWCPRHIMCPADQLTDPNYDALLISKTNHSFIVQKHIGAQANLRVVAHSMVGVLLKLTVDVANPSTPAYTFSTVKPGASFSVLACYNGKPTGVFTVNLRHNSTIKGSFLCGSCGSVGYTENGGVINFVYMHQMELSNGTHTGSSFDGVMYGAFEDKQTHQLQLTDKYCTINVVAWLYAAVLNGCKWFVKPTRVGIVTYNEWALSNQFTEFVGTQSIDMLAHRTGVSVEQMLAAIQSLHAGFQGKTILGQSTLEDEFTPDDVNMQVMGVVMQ

SARS-3CL^pro = SARS-3CL^pro (Severe acute respiratory syndrome coronavirus (SARS-CoV), UniProt P0C6X7); assay type: biochemical
HKU1-3CL^pro = HKU1-3CL^pro (Human coronavirus HKU1 (isolate N1) (HCoV-HKU1), UniProt P0C6X2); assay: biochemical
Chain of HKU1-3CL^pro (P0C6X2 3335-3637 limits assumed): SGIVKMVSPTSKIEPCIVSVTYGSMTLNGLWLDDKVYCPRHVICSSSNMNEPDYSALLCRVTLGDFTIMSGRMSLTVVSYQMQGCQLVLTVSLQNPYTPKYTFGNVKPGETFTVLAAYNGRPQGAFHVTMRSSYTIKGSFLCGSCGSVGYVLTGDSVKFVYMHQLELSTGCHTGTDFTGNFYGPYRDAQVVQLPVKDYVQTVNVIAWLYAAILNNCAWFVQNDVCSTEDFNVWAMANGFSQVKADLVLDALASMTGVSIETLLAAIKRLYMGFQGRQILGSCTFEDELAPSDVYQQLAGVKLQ

[1] = test system: Ten CoV 3CL^pro's (FIPV-, PEDV-, NL63-, HKU1-, OC43-, SARS-, HKU4-, HKU5-, HKU9-, IBV-3CL^pro); assay type: biochemical, coronaviruses (α-, β-, γ-CoV)
NL63-3CL^pro = NL63-3CL^pro (Human coronavirus NL63 (HCoV-NL63), UniProt P0C6X5); assay: biochemical
Chain of NL63-3CL^pro (P0C6X5 2940-3242 limits assumed): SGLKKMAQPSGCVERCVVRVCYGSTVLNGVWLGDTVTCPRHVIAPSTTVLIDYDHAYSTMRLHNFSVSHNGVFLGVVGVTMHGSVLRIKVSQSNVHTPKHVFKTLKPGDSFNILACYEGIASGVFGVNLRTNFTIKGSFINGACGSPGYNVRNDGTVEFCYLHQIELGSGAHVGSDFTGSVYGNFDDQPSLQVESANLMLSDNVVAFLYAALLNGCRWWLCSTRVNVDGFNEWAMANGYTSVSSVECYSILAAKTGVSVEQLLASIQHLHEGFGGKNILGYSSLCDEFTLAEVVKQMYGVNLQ

Chain of HKU5-3CL^pro (P0C6W4 3339-3644 limits assumed): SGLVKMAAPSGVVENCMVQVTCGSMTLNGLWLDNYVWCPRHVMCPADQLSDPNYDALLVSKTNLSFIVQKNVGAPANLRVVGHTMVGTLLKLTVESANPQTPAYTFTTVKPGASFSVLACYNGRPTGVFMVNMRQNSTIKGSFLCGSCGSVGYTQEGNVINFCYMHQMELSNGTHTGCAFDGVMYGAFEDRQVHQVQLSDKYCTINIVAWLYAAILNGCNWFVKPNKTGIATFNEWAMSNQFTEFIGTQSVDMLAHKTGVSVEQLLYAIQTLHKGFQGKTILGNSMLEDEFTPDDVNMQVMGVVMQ
Chain of FIPV-3CL^pro (Q98VG9 2904-3205 limits assumed): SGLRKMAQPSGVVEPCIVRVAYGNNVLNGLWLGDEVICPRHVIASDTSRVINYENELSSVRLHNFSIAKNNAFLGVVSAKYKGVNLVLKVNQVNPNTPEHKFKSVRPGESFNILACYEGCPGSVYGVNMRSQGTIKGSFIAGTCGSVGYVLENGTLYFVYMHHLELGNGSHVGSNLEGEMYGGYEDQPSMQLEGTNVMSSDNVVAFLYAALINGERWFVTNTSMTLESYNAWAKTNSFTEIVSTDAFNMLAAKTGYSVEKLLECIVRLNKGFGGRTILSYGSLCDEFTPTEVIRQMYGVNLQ

SMILES | IC50 (FIPV-3CL^pro) [µM] | IC50 (HKU5-3CL^pro) [µM] | IC50 (PEDV-3CL^pro) [µM] | inhibition at 100 µM (PEDV-3CL^pro; read-out: inhibition of PEDV-3CL^pro) [%] | IC50 (OC43-3CL^pro) [µM] | IC50 (HKU4-3CL^pro) [µM] | IC50 (SARS-3CL^pro) [µM] | IC50 (HKU1-3CL^pro) [µM] | inhibition at 100 µM (HKU1-3CL^pro; read-out: inhibition of HKU1-3CL^pro) [%] | Gini Coefficient [1] | Score (performance metric score) [1] | IC50 (NL63-3CL^pro) [µM] | number of 3CL^pro's inhibited [1] | inhibition of HKU1-3CL^pro (HKU1-3CL^pro) | IC50 HKU5 (HKU5-3CL^pro) | inhibition of NL63-3CL^pro (NL63-3CL^pro) | inhibition of OC43-3CL^pro (OC43-3CL^pro) | IC50 HKU4 (HKU4-3CL^pro) | inhibition of SARS-3CL^pro (SARS-3CL^pro)
CC(C)C(=O)Nc1ccc(N(C(=O)Cn2nnc3ccccc32)C(C(=O)NCc2cccnc2)c2cccc(F)c2)cc1 (stereo not shown) [Compound 6, N-(4-(2-(1H-benzo[d][1,2,3]triazol-1-yl)-N-(1-(3-fluorophenyl)-2-oxo-2-((pyridin-3-ylmethyl)amino)ethyl)acetamido)phenyl)isobutyramide] | 13.8 ± 1.1 | 2.5 ± 0.2 | 8.3 ± 1.2 | > 50 | 10 ± 1.9 | 2 ± 0.1 | 5.5 ± 0.7 | 6.8 ± 1.9 | > 50 |  |  |  |  |  |  |  |  |  | 
CC(C)C(=O)Nc1ccc(N(C(=O)Cn2cnc3ccccc32)C(C(=O)NCc2ccccc2)c2cccc(F)c2)cc1 (stereo not shown) [Compound 19, N-(4-(2-(1H-benzo[d]imidazol-1-yl)-N-(2-(benzylamino)-1-(3-fluorophenyl)-2-oxoethyl)acetamido)phenyl)isobutyramide] |  | 2.9 ± 0.3 |  |  | 3.9 ± 0.4 | 2.5 ± 0.2 |  | 3.7 ± 0.6 |  | 0.31 | 6.8 |  |  |  |  |  |  |  | 
CC(C)(C)NC(=O)C(c1ccsc1)N(C(=O)Cn1cnc2ccccc21)c1ccc(NC(=O)C2CC2)cc1 (stereo not shown) [Compound 27, N-(4-(2-(1H-benzo[d]imidazol-1-yl)-N-(2-(tert-butylamino)-2-oxo-1-(thiophen-3-yl)ethyl)acetamido)phenyl)cyclopropanecarboxamide] |  | 9.7 ± 1.6 |  |  | 16.3 ± 2.1 | 9.6 ± 1 |  |  |  | 0.37 | 11.0 |  |  |  |  |  |  |  | 
CC(C)NC(=O)C(c1ccsc1)N(C(=O)Cn1nnc2ccccc21)c1ccc(NC(=O)C2CC2)cc1 (stereo not shown) [Compound 29, N-(4-(2-(1H-benzo[d][1,2,3]triazol-1-yl)-N-(2-(isopropylamino)-2-oxo-1-(thiophen-3-yl)ethyl)acetamido)phenyl)cyclopropanecarboxamide] |  | 2.4 ± 0.3 |  |  | 11.1 ± 1.2 | 2 ± 0.2 | 8.3 ± 1.5 |  |  |  | 6.3* | 8.1 ± 1.6 |  |  |  |  |  |  | 
O=C(Nc1ccc(N(C(=O)Cn2nnc3ccccc32)C(C(=O)NC2CC2)c2ccsc2)cc1)C1CC1 (stereo not shown) [Compound 32, N-(4-(2-(1H-benzo[d][1,2,3]triazol-1-yl)-N-(2-(cyclopropylamino)-2-oxo-1-(thiophen-3-yl)ethyl)acetamido)phenyl)cyclopropanecarboxamide] |  | 0.9 ± 0.1 |  |  | 2.8 ± 0.2 | 0.8 ± 0.1 | 8.2 ± 1.5 | 9.8 ± 1.8 |  |  | 5.0* | 14.8 ± 1.2 | six |  |  |  |  |  | 
O=C(Nc1ccc(N(C(=O)Cn2nnc3ccccc32)C(C(=O)NC2CCCC2)c2ccsc2)cc1)C1CC1 (stereo not shown) [Compound 33, N-(4-(2-(1H-benzo[d][1,2,3]triazol-1-yl)-N-(2-(cyclopentylamino)-2-oxo-1-(thiophen-3-yl)ethyl)acetamido)phenyl)cyclopropanecarboxamide] |  | 0.6 ± 0.1 |  |  | 7.3 ± 0.8 | 0.5 ± 0.05 | 4.2 ± 0.6 |  |  | 0.32 | 5.7* | 3.7 ± 0.6 |  | not tolerated |  |  |  |  | 
O=C(Nc1ccc(N(C(=O)Cn2nnc3ccccc32)C(C(=O)NCc2cccnc2)c2ccsc2)cc1)C1CC1 (stereo not shown) [Compound 34, N-(4-(2-(1H-benzo[d][1,2,3]triazol-1-yl)-N-(2-oxo-2-((pyridin-3-ylmethyl)amino)-1-(thiophen-3-yl)ethyl)acetamido)phenyl)cyclopropanecarboxamide] | 27.5 ± 3.8 | 2.1 ± 0.2 |  |  | 8.9 ± 0.5 |  | 9.9 ± 0.9 | 7.4 ± 1.1 |  |  |  | 15.6 ± 1.3 |  |  |  |  |  |  | 
O=C(Nc1ccc(N(C(=O)Cn2nnc3ccccc32)C(C(=O)NCc2ccccc2)c2ccsc2)cc1)C1CC1 (stereo not shown) [Compound 37, N-(4-(2-(1H-benzo[d][1,2,3]triazol-1-yl)-N-(2-(benzylamino)-2-oxo-1-(thiophen-3-yl)ethyl)acetamido)phenyl)cyclopropanecarboxamide] |  | 0.8 ± 0.1 |  |  | 2.2 ± 0.2 | 0.6 ± 0.04 | 2 ± 0.2 |  |  |  | 5.3* | 3 ± 0.3 |  |  |  |  |  |  | 
CC(C)(C)NC(=O)C(c1cccnc1)N(C(=O)c1c[nH]cn1)c1ccc(C2CC2)cc1 (stereo not shown) [Compound 39, N-(2-(tert-butylamino)-2-oxo-1-(pyridin-3-yl)ethyl)-N-(4-cyclopropylphenyl)-1H-imidazole-4-carboxamide] |  | 15.7 ± 2 | 17.6 ± 2.6 |  |  | 16.6 ± 1.7 | 12.7 ± 2.5 | 2 ± 1.1 |  | 0.19 | 7.6 |  | five out of ten |  |  |  |  |  | 
CC(C)(C)NC(=O)C(c1cccnc1)N(C(=O)c1c[nH]cn1)c1ccc(C2CCCC2)cc1 (stereo not shown) [Compound 41, N-(2-(tert-butylamino)-2-oxo-1-(pyridin-3-yl)ethyl)-N-(4-cyclopentylphenyl)-1H-imidazole-4-carboxamide] | 18.7 ± 2 | 19.1 ± 2 | 10.5 ± 0.9 |  |  | 19.8 ± 1.5 | 5.3 ± 0.5 | 5 ± 0.6 |  | 0.26 | 6.2 |  |  |  |  |  |  |  | 
CC(C)(C)NC(=O)C(c1cccnc1)N(C(=O)c1c[nH]cn1)c1ccc(C2CCCCC2)cc1 (stereo not shown) [Compound 42, N-(2-(tert-butylamino)-2-oxo-1-(pyridin-3-yl)ethyl)-N-(4-cyclohexylphenyl)-1H-imidazole-4-carboxamide] | 39.7 ± 5.7 | 4.3 ± 1 | 26.2 ± 2.4 |  | 63.1 ± 12 | 27 ± 4.1 | 6.3 ± 0.5 | 11.6 ± 1.5 |  | 0.18 | 6.6 |  |  |  |  |  |  |  | 
CC(C)(C)c1ccc(N(C(=O)c2c[nH]cn2)C(C(=O)NC2CC2)c2cccnc2)cc1 (stereo not shown) [Compound 46, N-(4-(tert-butyl)phenyl)-N-(2-(cyclopropylamino)-2-oxo-1-(pyridin-3-yl)ethyl)-1H-imidazole-4-carboxamide] | 43.9 ± 6.1 | 8.9 ± 0.9 | 4.3 ± 0.4 |  | 24.5 ± 4.3 | 11.2 ± 1 | 11.8 ± 1.6 | 7.8 ± 1.2 |  |  | 4.0 | 16.8 ± 2.9 |  |  |  |  |  |  | 
CC(C)(C)OC(=O)CNC(=O)C(c1ccsc1)N(C(=O)Cn1nnc2ccccc21)c1ccc(NC(=O)C2CC2)cc1 (stereo not shown) [Compound 64, tert-butyl (2-(2-(1H-benzo[d][1,2,3]triazol-1-yl)-N-(4-(cyclopropanecarboxamido)phenyl)acetamido)-2-(thiophen-3-yl)acetyl)glycinate] | 11.7 ± 1.2 | 2 ± 0.2 | 8.7 ± 1.4 |  | 4.5 ± 0.3 | 2.1 ± 0.2 | 6.3 ± 0.8 | 6.5 ± 0.9 |  |  |  | 8.7 ± 0.8 | eight of the ten |  |  |  |  |  | 
O=C(Nc1ccc(N(C(=O)Cn2nnc3ccccc32)C(C(=O)NC2CCCCC2)c2ccsc2)cc1)C1CC1 (stereo not shown) [Compound 67, N-(4-(2-(1H-benzo[d][1,2,3]triazol-1-yl)-N-(2-(cyclohexylamino)-2-oxo-1-(thiophen-3-yl)ethyl)acetamido)phenyl)cyclopropanecarboxamide] |  | 0.6 ± 0.1 |  |  |  | 0.7 ± 0.1 |  |  |  | 0.39 | 8.3* |  |  |  | sub-micromolar | not tolerated | not tolerated | sub-micromolar | not tolerated
